Measurements published in the NIST ThermoML archive (doi:10.1016/j.jct.2006.08.009).

Assay: mn = molality of the nth substance listed, in mol/kg
Conditions: 350 kPa, Liquid; for apparent molar heat capacity: Extra sensitive DSC

OCC(O)CO [glycerol] + O
Conditions	apparent molar heat capacity [J/K/mol]	mass density [kg/m3]
318.15 K, m1 = 0.5002	–	1000.34
318.15 K, m1 = 1.001	–	1009.55
318.15 K, m1 = 2	–	1026.3
318.15 K, m1 = 3.003	–	1041.09
318.15 K, m1 = 4.999	–	1065.4
323.15 K, m1 = 0.02	260	–
323.15 K, m1 = 0.05	258.8	–
323.15 K, m1 = 0.1	259.4	–
323.15 K, m1 = 0.2501	258.6	–
323.15 K, m1 = 0.5002	258	–
323.15 K, m1 = 1.001	256.23	–
323.15 K, m1 = 2	253.61	–
323.15 K, m1 = 3.003	248.72	–
323.15 K, m1 = 4.999	247.42	–
328.15 K, m1 = 0.02	263	986.19
328.15 K, m1 = 0.05	261.7	986.78
328.15 K, m1 = 0.1	262.3	987.77
328.15 K, m1 = 0.2501	261.5	990.83
328.15 K, m1 = 0.5002	261	995.67
328.15 K, m1 = 1.001	259.22	1004.79
328.15 K, m1 = 2	256.62	1021.31
328.15 K, m1 = 3.003	251.8	1035.9
328.15 K, m1 = 4.999	250.48	1059.9
333.15 K, m1 = 0.02	266	–
333.15 K, m1 = 0.05	264.5	–
333.15 K, m1 = 0.1	265	–
333.15 K, m1 = 0.2501	264.3	–
333.15 K, m1 = 0.5002	263.72	–
333.15 K, m1 = 1.001	262	–
333.15 K, m1 = 2	259.44	–
333.15 K, m1 = 3.003	254.69	–
333.15 K, m1 = 4.999	253.36	–
338.15 K, m1 = 0.02	268.5	981.05
338.15 K, m1 = 0.05	267	981.63
338.15 K, m1 = 0.1	267.6	982.65
338.15 K, m1 = 0.2501	266.8	985.63
338.15 K, m1 = 0.5002	266.28	990.4
338.15 K, m1 = 1.001	264.6	999.46
338.15 K, m1 = 2	262.07	1015.84
338.15 K, m1 = 3.003	257.43	1030.29
338.15 K, m1 = 4.999	256.04	1054
343.15 K, m1 = 0.02	270.6	–
343.15 K, m1 = 0.05	269.2	–
343.15 K, m1 = 0.1	269.8	–
343.15 K, m1 = 0.2501	269.15	–
343.15 K, m1 = 0.5002	268.63	–
343.15 K, m1 = 1.001	266.97	–
343.15 K, m1 = 2	264.48	–
343.15 K, m1 = 3.003	259.94	–
343.15 K, m1 = 4.999	258.51	–
348.15 K, m1 = 0.02	272.9	975.36
348.15 K, m1 = 0.05	271.3	975.93
348.15 K, m1 = 0.1	271.9	976.93
348.15 K, m1 = 0.2501	271.31	979.9
348.15 K, m1 = 0.5002	270.82	984.63
348.15 K, m1 = 1.001	269.16	993.59
348.15 K, m1 = 2	266.71	1009.84
348.15 K, m1 = 3.003	262.29	1024.18
348.15 K, m1 = 4.999	260.82	1047.69
353.15 K, m1 = 0.02	274.8	–
353.15 K, m1 = 0.05	273.1	–
353.15 K, m1 = 0.1	273.9	–
353.15 K, m1 = 0.2501	273.26	–
353.15 K, m1 = 0.5002	272.82	–
353.15 K, m1 = 1.001	271.17	–
353.15 K, m1 = 2	268.75	–
353.15 K, m1 = 3.003	264.53	–
353.15 K, m1 = 4.999	262.96	–
358.15 K, m1 = 0.02	276.3	969.12
358.15 K, m1 = 0.05	274.7	969.7
358.15 K, m1 = 0.1	275.6	970.69
358.15 K, m1 = 0.2501	274.92	973.64
358.15 K, m1 = 0.5002	274.47	978.33
358.15 K, m1 = 1.001	272.82	987.24
358.15 K, m1 = 2	270.44	1003.38
358.15 K, m1 = 3.003	266.6	1017.63
358.15 K, m1 = 4.999	264.75	1041.02
363.15 K, m1 = 0.02	277.1	–
363.15 K, m1 = 0.05	275.5	–
363.15 K, m1 = 0.1	276.5	–
363.15 K, m1 = 0.2501	275.65	–
363.15 K, m1 = 0.5002	275.17	–
363.15 K, m1 = 1.001	273.45	–
363.15 K, m1 = 2	271.04	–
363.15 K, m1 = 3.003	268.61	–
363.15 K, m1 = 4.999	265.49	–
368.15 K, m1 = 0.02	–	962.42
368.15 K, m1 = 0.05	–	963
368.15 K, m1 = 0.1	–	963.94
368.15 K, m1 = 0.2501	–	966.88
368.15 K, m1 = 0.5002	–	971.55
368.15 K, m1 = 1.001	–	980.42
368.15 K, m1 = 2	–	996.47
368.15 K, m1 = 3.003	–	1010.68
368.15 K, m1 = 4.999	–	1033.93
